Where a name gives a salt, the structure may show the parent alone.

Data on nine compounds can be found in patent US6906072B1, “Piperazine compound and pharmaceutical composition containing the compound” (Eisai Co., Ltd., priority 2000, dated 2005).

The subject of assay [1] is T1, potential dependent calcium channel.
T1 construct: other: 1 μM
Particulars: 1 μM; cited from earlier work.

Assay [2] concerns formalin test using mouse. The experiment in a line: Analgesic effect in formalin test using mouse. Format: in vivo. Particulars: licking time for 5 minutes. As to the method: Analgesic Effect (I) in Formalin Test Using Mouse
Therefore, the analgesic effect obtained in the case where the intravenous administration of the present compound was carried out was studied in the formalin test (3)) using a mouse.
Ddy mice (male, 4 to 7 weeks age) purchased from Japan SLC Co, were used for experiment. Preliminary feeding of 4 days or more was carried out for mice (breeding condition: a room temperature 23±1° C., air humidity 55±5%, lighting cycle of every 12 hours). The mice were accommodated by a group of approximately 20 in a cage made of polycarbonate for 20 mice in which floor cloth (White Flake, Charles River Co., Ltd., Tokyo) was spread, and were bred. At the morning of the day tested, they were moved to a laboratory. They were freely fed MF (Oriental Yeast Co., Tokyo) as a feed. Further, they drunk city water freely. […]
10 mg/kg of the present compound was intravenously administered via tail vein, 30 mg/kg of morphine was orally administered and 10 mg/kg of indomethacin was orally administered. […] Just after the administration of formalin, the licking time of an action in which a mouse licked his left hind leg was measured for 5 minutes, and it was made as an index of pain. […] Setting the licking time of the control as 100%, the suppression rate (%) of the present compound was calculated by the following calculation formula. […]

Assay [3] has as its system rat middle cerebral artery emphraxis model. Briefly: Shrinking effect of infarction nidus in rat middle cerebral artery emphraxis model. Format: in vivo. Particulars: for volume of the infarction nidus of cerebral cortex: average value±standard error, after 24 hours; for reduction of the volume of the infarction nidus of cerebral cortex: from 30 minutes after emphraxis, vs control group, measured after 24 hours. An excerpt: Shrinking Effect of Infarction nidus in rat Middle Cerebral Artery Emphraxis Model (I)
A calcium ion in the cell plays an important role in the expression of various cell functions. But when the calcium ion concentration in the cell rises excessively, cell affection is induced (refer to literatures 1) and 2), hereinafter, the same as this.). For example, neural cell affection induced by excitatory amino-acid occurring in the case of cerebral ischemia provokes excessive rise of the calcium ion concentration in the cell (3) and 4)). The maintenance mechanism of membrane potential fails by excitatory amino-acid which rose in the case of local cerebral ischemia (3)), the depolarization of membrane is induced (5)), and the influx of the calcium ion into the cell through the potential dependent calcium channel is increased (6) and 7)). […] The potential dependent calcium channels existing in the neural cell are classified in 6 kinds of sub-types based on the electro-physiological and pharmacological investigation (T, L, N, P, Q and R types) (9)). Among these, N, P and Q types play an important role in the liberation of glutamic acid from rat cerebral cortex synaptosome (10) and 11)).
The compound represented by the above formula (I) according to the present invention was dissolved in a physiological saline, and appropriately prepared so as to be in doses of 1.5, 5 and 15 mg/kg/h. The concentration of the specimen was calculated based on the average body weight of an animal. Further, the average body weight was calculated by measuring the body weight of all animals which are intended to be used for experiment. For example, in the case of 5 mg/kg/h, it was calculated as: concentration of specimen=5 mg×average body weight (kg)/administration volume (0.616 ml) per hour. • (2) Manufacture of nylon embolus
The embolus made from nylon stitch (Ethicon, Inc., Somerville, N.J., USA) of 4-0 monofilament was used for emphraxis of middle cerebral artery. As the nylon embolus, that prepared by previously rounding its tip with flame, fragmenting it in a length of 25 mm, and marking at a position of 17 mm from the tip with an oily felt pen was used. • (3) Implantation of catheter for intravenous administration
The implantation of catheter for intravenous administration (Atom Vein Catheter 3Fr, manufactured by ATOM MEDICAL Co., Ltd., Tokyo) was carried out under 70% laughing gas-2% halothane anaesthesia. Catheter which was filled up with a physiological saline solution was inserted from the femoral vein of left foot. • (4) Emphraxis of middle cerebral artery
The emphraxis of middle cerebral artery was carried out in accordance with the method of Longa et al (12)). The operation was carried out under 70% laughing gas-2% halothane anaesthesia just after implanting the catheter. A rat was laid in facing upward under the stereoscopic microscope for operation, the neck was cut open, and the portion where the whole carotid arteries of the right side are diverged to the external carotid artery and the internal carotid artery was confirmed. The external carotid artery was cut off at the periphery side, and the nylon embolus was inserted from the terminal of the external carotid artery which was cut off into the internal carotid artery. The embolus was inserted up to the position where the position of 17 mm from the tip of the embolus is duplicated with a branch point of the external carotid artery and the internal carotid artery, and was fixed.
The rat was caught and lifted with the cauda after 30 minutes from the emphraxis of middle cerebral artery, an indivisual which expresses clearly the one side paralysis of a fore-leg (the paralysis of a fore-leg of the opponent side which loaded infarct) was provided for experiment as an example in which middle cerebral artery was occluded and was able to make an ischemia condition. • (6) Administration of medium and specimen […]

The test system of assay [4] is potential dependent calcium channel. Briefly: Measurement of potential dependent calcium channel activity using fluorescent dye (fura2) in cerebral cortex synaptosome stimulated with KCl. Format: cell-based, rat.
Assay [5] deals with rat local cerebral ischemia model. Conditions: literature reports, result in words; cited from earlier work.
The subject of the next assay is formalin test. Particulars: administration in spinal cord, literature reports, result in words; cited from earlier work.

w-Agatoxin-IVA: the “inhibition against the Ca2+ influx” value in assay [1] was 64%.
n-conotoxin GVIA: the “inhibition against the Ca2+ influx” value in assay [1] was 18%.
Consider `CN1CC[C@]23c4c5ccc(O)c4O[C@H]2[C@@H](O)C=C[C@H]3[C@H]1C5` [morphine, reference compound], for which the “suppression rate of licking time” value in assay [2] (30 mg/kg orally, formalin 30 minutes after administration) is given as 54%.
As to `CC(C)C(C#N)(CCCN1CCN(CCOc2cccc(C#N)c2)CC1)c1ccc(C#N)s1` (centres unmarked) [Example 70], the “volume of the infarction nidus of cerebral cortex” value in assay [3] (1.5 mg/kg/h intravenous) is on record as 128.9±12.5 mm^3; in assay [3] (5 mg/kg/h intravenous), 108.0±14.9 mm^3; in assay [3] (15 mg/kg/h intravenous), 75.7±11.2 mm^3. In addition, the “reduction of the volume of the infarction nidus of cerebral cortex” value in assay [3] (1.5 mg/kg/h intravenous) amounted to 4%; in assay [3] (5 mg/kg/h intravenous), 20%; in assay [3] (15 mg/kg/h intravenous), 44%.
In the case of `CC(C)N(CCN1CCN(CCCC(C#N)(c2cccs2)C(C)C)CC1)c1ccccn1` (centres unmarked) [Example 189, 1-[4-cyano-4-(2-thienyl)-5-methylhexyl]-4-[2-{N-isopropyl-N-(2-pyridyl)amino]ethyl}Piperazine], the “suppression rate of licking time” value in assay [2] (10 mg/kg intravenously, formalin 5 minutes after administration) amounted to 59%.
With `COc1ccc(CCN(C)CCCC(C#N)(c2ccc(OC)c(OC)c2)C(C)C)cc1OC` (centres unmarked) [Control, verapamil hydrochloride], in assay [4], the IC50 is greater than 16 µM.
As for ω-agatoxin IVA, the “protection of neural cells in rat local cerebral ischemia model” value in assay [5] is “exhibited a protective action for neural cell”.
Take `CC(C)C(C#N)(CCCN1CCN(CCOc2cccc(C#N)c2)CC1)c1cccs1` (centres unmarked) [Example 75]: the “volume of the infarction nidus of cerebral cortex” value in assay [3] (1.5 mg/kg/h intravenous) stood at 119.9±12.6 mm^3; in assay [3] (5 mg/kg/h intravenous), 102.0±14.1 mm^3; in assay [3] (15 mg/kg/h intravenous), 83.7±21.3 mm^3. For the same compound, the “reduction of the volume of the infarction nidus of cerebral cortex” value in assay [3] (1.5 mg/kg/h intravenous) worked out at 26%; in assay [3] (5 mg/kg/h intravenous), 37%; in assay [3] (15 mg/kg/h intravenous) it was 49%.
As for `CSCC[C@@H]1NC(=O)[C@H](CC(C)C)NC(=O)[C@H](CCCNC(=N)N)NC(=O)[C@H](CO)NC(=O)[C@@H]2CSSC[C@@H]3NC(=O)[C@H](CO)NC(=O)CNC(=O)[C@H]([C@@H](C)O)NC(=O)[C@H](CSSC[C@H](N)C(=O)N[C@@H](CCCCN)C(=O)NCC(=O)N[C@@H](CCCCN)C(=O)NCC(=O)N[C@@H](C)C(=O)N[C@@H](CCCCN)C(=O)N2)NC(=O)[C@H](CSSC[C@@H](C(N)=O)NC(=O)[C@H](CCCCN)NC(=O)CNC(=O)[C@H](CO)NC(=O)[C@H](CCCNC(=N)N)NC3=O)NC(=O)[C@H](CC(=O)O)NC(=O)[C@H](Cc2ccc(O)cc2)NC1=O` [SNX-111], in the assay with formalin test, the “analgesic action in the formalin test” value is on record as “exhibits an analgesic action”. Also, the “protection of neural cells in rat local cerebral ischemia model” value in assay [5] was “protected the liberation of glutamic acid from cerebral cortex and subsequent neural cell affection”.
